One assay has as its system IRF. Kind of assay: Induction of IRF in THP1 dual cells (ISG54 promoter Lucia reporter). Format: cell-based. To be noted: 20 h incubation, Lucia reporter (QUANTI-luc). Here is the method: (§1) Example 6. In Vitro Induction of IRF and NF-κβ in THP1 Cells Table 2
(§2) THP1 dual cells grown in complete media were treated with various concentrations of a compound of the present disclosure or DMSO control. Dual cells carry both secreted embryonic alkaline phosphatase (SEAP) reporter gene under the control of an IFN-β minimal promoter fused to five copies of the NF-kB consensus transcriptional response element to measure NF-kB activity and Lucia reporter gene under the control of an ISG54 minimal promoter to measure IRF activity. After 20 h incubation, IRF activity was assessed using QUANTI-luc to measure levels of Lucia and NF-kB activity was determined by measure SEAP levels at 620-655 nm. % induction was calculated from fold change in luminescence/absorbance compared to DMSO treated sample. […] EC50 values were generated by curve fit in Xlfit.
(§3) Cells grown in complete media were treated with various concentrations of a compound of the disclosure or DMSO control. Dual cells carry both secreted embryonic alkaline phosphatase (SEAP) reporter gene under the control of an IFN-β minimal promoter fused to five copies of the NF-kB consensus transcriptional response element to measure NF-kB activity and Lucia reporter gene under the control of an ISG54 minimal promoter to measure IRF activity. After 20 h incubation, IRF activity was assessed using QUANTI-luc to measure levels of Lucia and NF-kB activity was determined by measure SEAP levels at 620-655 nm. % induction was calculated from fold change in luminescence/absorbance compared to DMSO treated sample. EC50 values are generated by curve fit in Xlfit.

The next assay concerns NF-κβ. Kind of assay: Induction of NF-κβ in THP1 dual cells (SEAP reporter). It is filed as cell-based. To be noted: 20 h incubation, SEAP levels at 620-655 nm. Here is the method: as §1, §2, §3

What is called EC50 is the concentration needed to bring the measured effect to its halfway point. Take `C=CCCC(=O)NCCCCCCCCCCCCOc1ccc(C(=O)Oc2ccc(CSP3(=O)OC[C@H]4O[C@@H](n5cnc6c(N)ncnc65)[C@H](F)[C@@H]4OP(=O)(O)OC[C@H]4O[C@@H](n5ccc(=O)[nH]c5=O)[C@H](F)[C@@H]4O3)cc2)cc1` (some centres unmarked) [Compound 8]: the EC50 in the assay with IRF is 1000 to 2000 nM; in the assay on NF-κβ, > 2000 nM.
For `NCCCOCCOCCOCCOc1ccc(C(=O)Oc2ccc(CSP3(=O)OC[C@H]4O[C@@H](n5cnc6c(N)ncnc65)[C@H](F)[C@@H]4OP(=O)(O)OC[C@H]4O[C@@H](n5ccc(=O)[nH]c5=O)[C@H](F)[C@@H]4O3)cc2)cc1` (some centres unmarked) [Compound 7], in that order: 50 to 500 nM and 1000 to 2000 nM.
As for `NCCCCCCCCCCOc1ccc(C(=O)Oc2ccc(CSP3(=O)OC[C@H]4O[C@@H](n5cnc6c(N)ncnc65)[C@H](F)[C@@H]4OP(=O)(O)OC[C@H]4O[C@@H](n5ccc(=O)[nH]c5=O)[C@H](F)[C@@H]4O3)cc2)cc1` (some centres unmarked) [Compound 1], the EC50 in the assay on IRF is < 50 nM; in the assay on NF-κβ it was 500 to 1000 nM.
`Nc1ncnc2c1ncn2[C@@H]1O[C@@H]2COP(=O)(SCc3ccc(OC(=O)c4ccc(OCCCCCCCCCCO)cc4)cc3)O[C@H]3[C@@H](F)[C@H](n4ccc(=O)[nH]c4=O)O[C@@H]3COP(=O)(O)O[C@H]2[C@H]1F` (some centres unmarked) [Compound 2]: the EC50 in the assay with IRF was < 50 nM; with NF-κβ, 500 to 1000 nM.

For the origin of these results see patent US12187761B2, “Compounds, compositions, and methods for the treatment of disease” (F-star Therapeutics, Inc., priority 2017, dated 2025).
